Measured values reported in PubChem BioAssay AID1963843 (Molecular Pharmacology Branch, DTP, NCI, 2024).
pIC50: −log10 of the molar value.

System: 616215-338-R-J1-PDC complex spheroid viability
Assay: Anticancer human tumor 616215-338-R-J1-PDC patient-derived colon adenocarcinoma cell line growth inhibition [POLQ]
Conditions: for pIC50: curve of first compound; for viability, T/C: stronger effect = lower value
Experimental: Multicellular complex tumor spheroid response to Polymerase (POL) inhibitors (novobiocin, ART-558, RP6685) in combination with a variety of drugs and investigational agents in selected tumor cell lines
The POL inhibitors (novobiocin, ART-558, and RP6685) were evaluated both individually and in combination with standard of care and investigational anticancer small molecules within a complex spheroid model of solid tumors. . Complex spheroids include a stromal component modeled by human endothelial cells (HUVEC) and fibroblasts modeled by human mesenchymal stem cells (MSCs). The concentration ranges selected for each drug and investigational agent were based upon clinically achievable concentrations if the clinical Cmax of the agent was known.
Compounds. The drugs and investigational agents: novobiocin (NSC847541), ART-558 (NSC835418), RP-6685 (NSC848927), peposertib (NSC802822), ceralasertib (NSC780249), elimusertib (NSC800525), camonsertib (NSC841442), AZD-1390 (NSC803789), olaparib (NSC753686), talazoparib (NSC767125), rucaparib (NSC756644), sotorasib (NSC818433), MRTX-1133 (NSC836407), SN-38 (NSC673596), topotecan (NSC609699), epotoside (NSC141540), doxorubicin (NSC123127), gemcitabine (NSC613327), 5-fluorouracil (NSC19893), paclitaxel (NSC125973), vemurafenib (NSC761431), MSA-2 (NSC828583), SN-011 (NSC837082), adavosertib (NSC754352), prexasertib (NSC758257), carboplatin (NSC241240) and oxaliplatin (NSC266046), were obtained from the National Cancer Institute (NCI) Developmental Therapeutics Program Chemical Repository (21). The FDA-approved anticancer drug set is available from the Developmental Therapeutics Program at https://dtp.cancer.gov/organization/dscb/obtaining/. […] The stock solutions were prepared in dimethyl sulfoxide (DMSO, Sigma-Aldrich, St. Louis, MO, cat. D2650), except for the platinum compounds which were prepared in saline (Quality Biological, Gaithersburg, MD, cat. 114-055-101), at 800-fold the tested concentration and stored at -70 degrees C prior to their use. All drugs and investigational agents were tested over a range starting from a high concentration at or near the clinical Cmax and decreasing in half-log increments. If the clinical Cmax for an agent had not been determined, the highest concentration tested was 10 microM, except for SN-38, which was tested at a high concentration of 1 microM.
Cell Culture. All cells were maintained in an incubator at 37 degrees C and 5% CO2 with 95% humidity. The PDC lines were cultured according to standard operating procedures established by the NCI PDMR (https://pdmr.cancer.gov). Table 3 of the manuscript, lists the cell lines along with the number of the three cell types plated to form the mct-spheroids and media for tumor cell growth. After thawing, all PDC lines, except 997537-175-T-J1-PDC and 415267-285-R-J2-PDC, were cultured in Matrigel-coated flasks prepared with a working solution of 1X Ham's F-12 nutrient mix, without supplementation (Thermo Fisher Scientific, cat. 11765054), 100 U/mL penicillin-streptomycin (Thermo Fisher Scientific, cat. 15140122), and 2.5% Matrigel (Corning Inc., Corning, NY, cat. 354248) for the first three passages. The two PDC lines 997537-175-T-J1-PDC and 415267-285-R-J2-PDC were cultured on uncoated flasks. The 857933-349-R-J2-PDC line was cultured in 6C/Colon 1B media containing advanced DMEM/F-12 (Thermo Fisher Scientific, cat. 12634028), 10 mM HEPES (Thermo Fisher Scientific, cat. 15630080), 1X GlutaMAX supplement (Thermo Fisher Scientific, cat. 35050061), 0.1 mg/mL primocin (InvivoGen, San Diego, CA, cat. ant-pm-2), 10% defined fetal bovine serum, heat inactivated (HyClone Laboratories Inc., Logan, UT, cat. SH30070.03HI), 50% L-WRN conditioned media (ATCC, cat. CRL-3276), 1.25 mM N-Acetyl-L-cysteine (Sigma-Aldrich, cat. A9165), 10 mM nicotinamide (Sigma-Aldrich, cat. N0636), 1X B-27 supplement (Thermo Fisher Scientific, cat. 17504044), 1X N-2 supplement (Thermo Fisher Scientific, cat. […]
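Further: spheroids exposed to compounds for one week before readout.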
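Wherever viability, T/C is given: percent viability relative to DMSO vehicle wells taken as 100%.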

Structure (SMILES): COc1ccc([C@@H](O)c2cc(-c3ncnc4cc(N5CCOCC5)ccc34)c(F)cc2Cl)nn1 + COC1C(OC(N)=O)C(O)C(Oc2ccc3c(O)c(NC(=O)c4ccc(O)c(CC=C(C)C)c4)c(=O)oc3c2C)OC1(C)C
- pIC50 (second compound 0.0316 µM): < 5.00
- pIC50 (second compound 0.1 µM): < 5.00
- pIC50 (second compound 0.316 µM): < 5.00
- pIC50 (second compound 1 µM): < 5.00
- pIC50 (second compound 3.16 µM): < 5.00
- pIC50 (second compound 10 µM): < 5.00
- viability, T/C (second compound 0.0316 µM, first compound 0.0316 µM): 109%
- viability, T/C (second compound 0.0316 µM, first compound 0.1 µM): 105%
- viability, T/C (second compound 0.0316 µM, first compound 0.316 µM): 110%
- viability, T/C (second compound 0.0316 µM, first compound 1 µM): 99.4%
- viability, T/C (second compound 0.0316 µM, first compound 3.16 µM): 105%
- viability, T/C (second compound 0.0316 µM, first compound 10 µM): 76.1%
- viability, T/C (second compound 0.1 µM, first compound 0.0316 µM): 109%
- viability, T/C (second compound 0.1 µM, first compound 0.1 µM): 99%
- viability, T/C (second compound 0.1 µM, first compound 0.316 µM): 109%
- viability, T/C (second compound 0.1 µM, first compound 1 µM): 109%
- viability, T/C (second compound 0.1 µM, first compound 3.16 µM): 113%
- viability, T/C (second compound 0.1 µM, first compound 10 µM): 73.5%
- viability, T/C (second compound 0.316 µM, first compound 0.0316 µM): 107%
- viability, T/C (second compound 0.316 µM, first compound 0.1 µM): 101%
- viability, T/C (second compound 0.316 µM, first compound 0.316 µM): 108%
- viability, T/C (second compound 0.316 µM, first compound 1 µM): 100%
- viability, T/C (second compound 0.316 µM, first compound 3.16 µM): 114%
- viability, T/C (second compound 0.316 µM, first compound 10 µM): 77.7%
- viability, T/C (second compound 1 µM, first compound 0.0316 µM): 96.7%
- viability, T/C (second compound 1 µM, first compound 0.1 µM): 101%
- viability, T/C (second compound 1 µM, first compound 0.316 µM): 116%
- viability, T/C (second compound 1 µM, first compound 1 µM): 117%
- viability, T/C (second compound 1 µM, first compound 3.16 µM): 110%
- viability, T/C (second compound 1 µM, first compound 10 µM): 66.3%
- viability, T/C (second compound 3.16 µM, first compound 0.0316 µM): 95.7%
- viability, T/C (second compound 3.16 µM, first compound 0.1 µM): 104%
- viability, T/C (second compound 3.16 µM, first compound 0.316 µM): 100%
- viability, T/C (second compound 3.16 µM, first compound 1 µM): 119%
- viability, T/C (second compound 3.16 µM, first compound 3.16 µM): 108%
- viability, T/C (second compound 3.16 µM, first compound 10 µM): 69.7%
- viability, T/C (second compound 10 µM, first compound 0.0316 µM): 104%
- viability, T/C (second compound 10 µM, first compound 0.1 µM): 94.2%
- viability, T/C (second compound 10 µM, first compound 0.316 µM): 111%
- viability, T/C (second compound 10 µM, first compound 1 µM): 107%
- viability, T/C (second compound 10 µM, first compound 3.16 µM): 110%
- viability, T/C (second compound 10 µM, first compound 10 µM): 66.5%
